Experimental data taken from patent US9006228B2 (Merck Sharp & Dohme Corp., priority 2011, dated 2015).

Molecular target: T1, human GPR119 (Homo sapiens, UniProt Q8TDV5)
T1 sequence (Q8TDV5 1-308 limits assumed): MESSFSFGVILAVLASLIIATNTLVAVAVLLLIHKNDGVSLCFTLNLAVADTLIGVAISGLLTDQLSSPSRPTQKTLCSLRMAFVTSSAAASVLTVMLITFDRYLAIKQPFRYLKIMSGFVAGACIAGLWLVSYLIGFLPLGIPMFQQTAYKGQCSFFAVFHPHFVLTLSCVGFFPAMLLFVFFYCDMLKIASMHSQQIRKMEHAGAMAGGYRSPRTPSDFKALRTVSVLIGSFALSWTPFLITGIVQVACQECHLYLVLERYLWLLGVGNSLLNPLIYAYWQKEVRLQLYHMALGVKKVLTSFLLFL
Assay: Measurement of GPR119 signaling (cAMP assay; LANCE kit or HTRF) in HEK293 cells stably transfected with human GPR119
Format: cell-based
Conditions: agonist-stimulated cAMP in HEK293 cells expressing human GPR119
Summary of the method: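 LANCE method: cAMP detected with Eu-chelate/biotin-cAMP tracer, 3 h, read at 665 nm, converted via cAMP standards; basal from DMSO, maximum from internal agonist, 4-parameter fit.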

Compound	EC50 [nM]
O=S(=O)(CCO)c1ccc(COC[C@@H]2C[C@@H]2C2CCN(c3ncc(Br)cn3)CC2)nc1 [Example 87, 2-({6-[({(1R,2R)-2-[1-(5-bromopyrimidin-2-yl)piperidin-4-yl]cyclopropyl}methoxy)methyl]pyridin-3-yl}sulfonyl)ethanol]	10.7
O=S(=O)(CCO)c1ccc(COC[C@@H]2C[C@@H]2C2CCN(c3ncc(Cl)cn3)CC2)c(F)c1 [Example 80]	2.3
O=S(=O)(CCO)c1ccc(COC[C@@H]2C[C@@H]2C2CCN(c3ncc(Cl)cn3)CC2)nc1 [Example 86, 2-({6-[({(1R,2R)-2-[1-(5-chloropyrimidin-2-yl)piperidin-4-yl]cyclopropyl}methoxy)methyl]pyridin-3-yl}sulfonyl)ethanol]	22
Cc1cnc(N2CCC([C@H]3C[C@H]3COCc3ccc(S(=O)(=O)CCO)cc3F)CC2)nc1 [Example 82]	11.7
CS(=O)(=O)c1ccc(COC[C@@H]2C[C@@H]2C2CCN(c3ncc(Cl)cn3)CC2)c(F)c1 [Example 68]	0.18
CCc1cnc(N2CCC([C@H]3C[C@H]3COCc3ccc(-c4cnc(OC)nc4)cc3F)CC2)nc1 [Example 104, 5-{4-[({(1R,2R)-2-[1-(5-ethylpyrimidin-2-yl)piperidin-4-yl]cyclopropyl}methoxy)methyl]-3-fluorophenyl}-2-methoxypyrimidine]	8.8
CCCc1cnc(N2CCC([C@H]3C[C@H]3COCc3ccc(S(C)(=O)=O)cc3)CC2)nc1 [Example 22, 2-{4-[(1R,2R)-2-({[4-(methylsulfonyl)benzyl]oxy}methyl)cyclopropyl]piperidin-1-yl}-5-propylpyrimidine]	0.3
CS(=O)(=O)c1ccc(COC[C@@H]2C[C@@H]2C2CCN(c3ncc(F)cn3)CC2)nc1 [Example 5, 5-fluoro-2-{4-[(1R,2R)-2-({[5-(methylsulfonyl)pyridin-2-yl]methoxy}methyl)cyclopropyl]piperidin-1-yl}pyrimidine]	21
CCc1cnc(N2CCC([C@H]3C[C@H]3COCc3ccc(-c4cncnc4)c(F)c3)CC2)nc1 [Example 113, 5-{4-[({(1R,2R)-2-[1-(5-ethylpyrimidin-2-yl)piperidin-4-yl]cyclopropyl}methoxy)methyl]-2-fluorophenyl}pyrimidine]	2
CCc1cnc(N2CCC([C@H]3C[C@H]3COCc3ccc(-c4cnccn4)cc3)CC2)nc1 [Example 123]	9.8
CC(C)c1noc(N2CCC([C@H]3C[C@H]3COCc3ccc(CC(=O)N4CC(O)C4)c(F)c3)CC2)n1 [Example 143, 2-(2-fluoro-4-((((1R,2R)-2-(1-(3-isopropyl-1,2,4-oxadiazol-5-yl)piperidin-4-yl)cyclopropyl)methoxy)methyl)phenyl)-1-(3-hydroxyazetidin-1-yl)ethanone]	6.3
CS(=O)(=O)c1ccc(COC[C@@H]2C[C@@H]2C2CCN(c3ncc(Cl)cn3)CC2)cc1F [Example 41, 5-chloro-2-{4-[(1R,2R)-2-({[3-fluoro-4-(methylsulfonyl)benzyl]oxy}methyl)cyclopropyl]piperidin-1-yl}pyrimidine]	0.4
O=S(=O)(CCO)c1ccc(COC[C@@H]2C[C@@H]2C2CCN(c3ncc(-c4ccoc4)cn3)CC2)c(F)c1 [Example 85, 2-[(3-fluoro-4-{[((1R,2R)-2-{1-[5-(3-furyl)pyrimidin-2-yl]piperidin-4-yl}cyclopropyl)methoxy]methyl}phenyl)sulfonyl]ethanol]	3.8

The remaining molecules from weak to strong by EC50, led by results:

EC50 [nM]	Compound
17	CCc1cnc(N2CCC([C@H]3C[C@H]3COCc3ccc(S(=O)(=O)CCO)cn3)CC2)nc1 [Example 88, 2-({6-[({(1R,2R)-2-[1-(5-ethylpyrimidin-2-yl)piperidin-4-yl]cyclopropyl}methoxy)methyl]pyridin-3-yl}sulfonyl)ethanol]
16	CC(C)OC(=O)N1CCC([C@H]2C[C@H]2COCc2ccc(S(C)(=O)=O)cc2)CC1 [Example 9, isopropyl 4-[(1R,2R)-2-({[4-(methylsulfonyl)benzyl]oxy}methyl)cyclopropyl]piperidine-1-carboxylate]
10	CCCc1cnc(N2CCC([C@H]3C[C@H]3COCc3ccc(S(=O)(=O)CCO)cn3)CC2)nc1 [Example 89, 2-({6-[({(1R,2R)-2-[1-(5-propylpyrimidin-2-yl)piperidin-4-yl]cyclopropyl}methoxy)methyl]pyridin-3-yl}sulfonyl)ethanol]
5.8	CS(=O)(=O)c1ccc(COC[C@@H]2C[C@@H]2C2CCN(c3ncc(F)cn3)CC2)cc1 [Example 16, 5-fluoro-2-{4-[(1R,2R)-2-({[4-(methylsulfonyl)benzyl]oxy}methyl)cyclopropyl]piperidin-1-yl}pyrimidine]
5.5	CCc1cnc(N2CCC([C@H]3C[C@H]3COCc3ccc(-c4ncno4)cc3)CC2)nc1 [Example 63, 5-ethyl-2-{4-[(1R,2R)-2-({[4-(1,2,4-oxadiazol-5-yl)benzyl]oxy}methyl)cyclopropyl]piperidin-1-yl}pyrimidine]
4.3	Cc1cnc(N2CCC([C@H]3C[C@H]3COCc3ccc(S(C)(=O)=O)cc3F)CC2)nc1 [Example 74]
3.2	CS(=O)(=O)c1c(F)cc(COC[C@@H]2C[C@@H]2C2CCN(c3ncc(F)cn3)CC2)cc1F [Example 47, 2-{4-[(1R,2R)-2-({[3,5-difluoro-4-(methylsulfonyl)benzyl]oxy}methyl)cyclopropyl]piperidin-1-yl}-5-fluoropyrimidine]
2.2	COC1CN(C(=O)Cc2ccc(COC[C@@H]3C[C@@H]3C3CCN(c4nc(C(C)C)no4)CC3)c(F)c2)C1 [Example 138, 2-(3-fluoro-4-((((1R,2R)-2-(1-(3-isopropyl-1,2,4-oxadiazol-5-yl)piperidin-4-yl)cyclopropyl)methoxy)methyl)phenyl)-1-(3-methoxyazetidin-1-yl)ethanone]
1.6	CC(O)CS(=O)(=O)c1ccc(COC[C@@H]2C[C@@H]2C2CCN(c3ncc(Br)cn3)CC2)c(F)c1 (stereo partly drawn) [Example 97, 1-({4-[({(1R,2R)-2-[1-(5-bromopyrimidin-2-yl)piperidin-4-yl]cyclopropyl}methoxy)methyl]-3-fluorophenyl}sulfonyl)propan-2-ol]
0.92	CC(C)c1noc(N2CCC([C@H]3C[C@H]3COCc3ccc(S(C)(=O)=O)cc3)CC2)n1 [Example 24, 1-(3-isopropyl-1,2,4-oxadiazol-5-yl)-4-[(1R,2R)-2-({[4-(methylsulfonyl)benzyl]oxy}methyl)cyclopropyl]piperidine]
0.66	CC(C)c1noc(N2CCC([C@H]3C[C@H]3COCc3ccc(CC(=O)N(C)C)c(F)c3)CC2)n1 [Example 140, 2-(2-fluoro-4-((((1R,2R)-2-(1-(3-isopropyl-1,2,4-oxadiazol-5-yl)piperidin-4-yl)cyclopropyl)methoxy)methyl)phenyl)-N,N-dimethylacetamide]
0.3	CCc1cnc(N2CCC([C@H]3C[C@H]3COCc3ccc(S(=O)(=O)CC)cc3)CC2)nc1 [Example 57, 5-ethyl-2-{4-[(1R,2R)-2-({[4-(ethylsulfonyl)benzyl]oxy}methyl)cyclopropyl]piperidin-1-yl}pyrimidine]
0.19	CS(=O)(=O)c1ccc(COC[C@@H]2C[C@@H]2C2CCN(c3ncc(Br)cn3)CC2)c(F)c1 [Example 70]
